Data on 17 compounds can be found in ChEMBL document CHEMBL1777720, “Novel, potent, and orally bioavailable phosphinic acid inhibitors of the hepatitis C virus NS3 protease” (Bioorg Med Chem Lett, 2011).

pEC50, pIC50: −log10 of the molar value.

Series [1] is described as follows: Clearance in dog at 1 mg/kg, iv. In kind it is ADME, organism-based, Canis lupus familiaris. Details: dose 1 mg/kg, route intravenous. Conditions: in vivo.
Series [2] in a line: Oral bioavailability in dog at 3 mg/kg. As to conditions: in vivo. It counts as ADME, organism-based, Canis lupus familiaris.
Series [3] deals with Hepatitis C virus. Description: Antiviral activity against HCV genotype 1b infected in Huh7 cells assessed as inhibition of viral replication by cell-based replicon assay. In kind it is functional, organism-based, Hepacivirus hominis. As to conditions: Huh-7.
Series [4] can be described thus: Inhibition of HCV 1a NS3/4A protease. On the set-up: species or system Hepatitis C virus subtype 1a.
A short description of series [5]: Oral bioavailability in rat at 10.7 mg/kg, po. In kind it is ADME, organism-based. Conditions: in vivo.
Series [6] is described as follows: Clearance in rat at 0.4 mg/kg, iv. It counts as ADME, organism-based. As to conditions: in vivo. Details: dose 0.4 mg/kg, route intravenous.
A short description of series [7]: Clearance in dog at 0.5 mg/kg, iv. In kind it is ADME, organism-based, Canis lupus familiaris. Details: dose 0.5 mg/kg, route intravenous. As to conditions: in vivo.
Series [8] in a line: Oral bioavailability in dog at 4 mg/kg. In kind it is ADME, organism-based, Canis lupus familiaris. Conditions: in vivo.

As usually defined, the clearance is a measure of how efficiently the substance is removed, as volume per time. One may read the bioavailability as the share of a dose that reaches the circulation, judged against a reference dose that is usually intravenous. The low end stands for poor availability, the high end for good availability. In turn, `C=C[C@@H]1C[C@]1(NC(=O)[C@@H]1C[C@@H](Oc2cc(-c3csc(NC(C)C)n3)nc3cc(OC)ccc23)CN1C(=O)[C@@H](NC(=O)OC1CCCC1)C(C)(C)C)P(=O)(O)O` gave a clearance in series [1] of 11.2 mL/min/kg. In series [2], the bioavailability worked out at 0.5%.

What is called pEC50 is the negative decadic logarithm of the EC50, by convention in mol/L. As a reminder, the pIC50 is the negative decadic logarithm of the IC50, by convention in mol/L. As to `COc1ccc2c(O[C@@H]3C[C@H]4C(=O)N[C@]5(P(=O)(O)O)C[C@H]5/C=C/CCCCC[C@H](NC(=O)OC5CCCC5)C(=O)N4C3)cc(-c3csc(NC(C)C)n3)nc2c1`, the pEC50 in series [3] was 8.30. In series [4], the negative logarithm of the IC50 (pIC50) is 9.00.

Take `C=C[C@@H]1C[C@]1(NC(=O)[C@@H]1C[C@@H](Oc2cc(-c3csc(NC(C)C)n3)nc3cc(OC)ccc23)CN1C(=O)[C@@H](NC(=O)OC1CCCC1)C(C)(C)C)P(C)(=O)O`: the pEC50 in series [3] is 7.16. Also, the bioavailability in series [5] was found to be 0.4%. In series [6], this compound had a clearance of 28.7 mL/min/kg. This compound gave a negative-log IC50 (pIC50) in series [4] of 8.22.

In the case of `C=C[C@@H]1C[C@]1(NC(=O)[C@@H]1C[C@@H](Oc2cc(-c3csc(NC(C)C)n3)nc3cc(OC)ccc23)CN1C(=O)[C@@H](NC(=O)OC1CCCC1)C(C)(C)C)P(=O)(O)CC`, the negative logarithm of the EC50 (pEC50) in series [3] is 6.41. The compound further had a pIC50 in series [4] of 8.10.

Take `C=C[C@@H]1C[C@]1(NC(=O)[C@@H]1C[C@@H](Oc2cc(-c3csc(NC(C)C)n3)nc3cc(OC)ccc23)CN1C(=O)[C@@H](NC(=O)OC1CCCC1)C(C)(C)C)P(=O)(O)CCCC`: the pEC50 in series [3] is 7.31. The compound further gave a negative-log IC50 (pIC50) in series [4] of 8.10.

With `C=C[C@@H]1C[C@]1(NC(=O)[C@@H]1C[C@@H](Oc2cc(-c3csc(NC(C)C)n3)nc3cc(OC)ccc23)CN1C(=O)[C@@H](NC(=O)OC1CCCC1)C(C)(C)C)P(=O)(O)C(C)C`, in series [3], the pEC50 was 5.51. The same compound had a pIC50 in series [4] of 7.07.

Consider `C=C[C@@H]1C[C@]1(NC(=O)[C@@H]1C[C@@H](Oc2cc(-c3csc(NC(C)C)n3)nc3cc(OC)ccc23)CN1C(=O)[C@@H](NC(=O)OC1CCCC1)C(C)(C)C)P(=O)(O)c1ccccc1`, for which the pEC50 in series [3] is 5.58. Moreover, the pIC50 in series [4] is 7.36.

Consider `C=C[C@@H]1C[C@]1(NC(=O)[C@@H]1C[C@@H](Oc2cc(-c3csc(NC(C)C)n3)nc3cc(OC)ccc23)CN1C(=O)[C@@H](NC(=O)OC1CCCC1)C(C)(C)C)P(=O)(O)Cc1ccccc1`, for which the pEC50 in series [3] was 6.74. Further, the results for the clearance in series [7] and in series [6] were 10.7 mL/min/kg and 36.7 mL/min/kg, respectively. In series [2], this compound registered a bioavailability of 4.6%. In addition, the pIC50 in series [4] was 8.05.

With `C=C[C@@H]1C[C@]1(NC(=O)[C@@H]1C[C@@H](Oc2cc(-c3csc(NC(C)C)n3)nc3cc(OC)ccc23)CN1C(=O)[C@@H](NC(=O)OC1CCCC1)C(C)(C)C)P(=O)(O)Cc1ccccc1Cl`, the pEC50 in series [3] was 6.51. In series [4], this compound showed a negative-log IC50 (pIC50) of 8.22.

As for `C=C[C@@H]1C[C@]1(NC(=O)[C@@H]1C[C@@H](Oc2cc(-c3csc(NC(C)C)n3)nc3cc(OC)ccc23)CN1C(=O)[C@@H](NC(=O)OC1CCCC1)C(C)(C)C)P(=O)(O)Cc1ccccc1OC`, the pEC50 in series [3] was 7.33. In series [4], this compound showed a pIC50 of 8.22.

Regarding `COc1ccc2c(O[C@@H]3C[C@H]4C(=O)N[C@]5(P(=O)(O)Cc6ccccc6)C[C@H]5/C=C/CCCCC[C@H](NC(=O)OC5CCCC5)C(=O)N4C3)cc(-c3csc(NC(C)C)n3)nc2c1`, in series [3], the pEC50 was 8.00. The negative-log IC50 (pIC50) in series [4] is 8.52.

As for `COc1ccc2c(O[C@@H]3C[C@H]4C(=O)N[C@]5(P(=O)(O)Cc6ccccc6)C[C@H]5CCCCCCC[C@H](NC(=O)OC5CCCC5)C(=O)N4C3)cc(-c3csc(NC(C)C)n3)nc2c1`, the negative-log EC50 (pEC50) in series [3] is 8.30. This compound also had a clearance in series [1] of 6 mL/min/kg. The same compound returned a bioavailability in series [8] of 6.4%. The negative-log IC50 (pIC50) in series [4] is 8.22.

For the compound `COc1ccc2c(O[C@@H]3C[C@H]4C(=O)N[C@]5(P(=O)(O)Cc6ccccc6Cl)C[C@H]5/C=C/CCCCC[C@H](NC(=O)OC5CCCC5)C(=O)N4C3)cc(-c3csc(NC(C)C)n3)nc2c1`, the pEC50 in series [3] was 8.30. In addition, the clearance in series [1] was 9.33 mL/min/kg. Moreover, the pIC50 in series [4] is 9.00.

Regarding `COc1ccc2c(O[C@@H]3C[C@H]4C(=O)N[C@]5(P(=O)(O)Cc6ccccc6Cl)C[C@H]5CCCCCCC[C@H](NC(=O)OC5CCCC5)C(=O)N4C3)cc(-c3csc(NC(C)C)n3)nc2c1`, the pEC50 in series [3] is 8.30. Moreover, the clearance in series [1] is 3.17 mL/min/kg. In series [4], this compound showed a pIC50 of 8.52.

`COc1ccc2c(O[C@@H]3C[C@H]4C(=O)N[C@]5(P(=O)(O)Cc6ccccc6OC)C[C@H]5/C=C/CCCCC[C@H](NC(=O)OC5CCCC5)C(=O)N4C3)cc(-c3csc(NC(C)C)n3)nc2c1`: the pEC50 in series [3] is 8.05. Further, the clearance in series [1] is 17.3 mL/min/kg. The compound further had a pIC50 in series [4] of 8.52.

Consider `COc1ccc2c(O[C@@H]3C[C@H]4C(=O)N[C@]5(P(=O)(O)Cc6ccccc6OC)C[C@H]5CCCCCCC[C@H](NC(=O)OC5CCCC5)C(=O)N4C3)cc(-c3csc(NC(C)C)n3)nc2c1`, for which the negative-log EC50 (pEC50) in series [3] is 8.15. This compound had a clearance in series [1] of 5.33 mL/min/kg. The same compound had a pIC50 in series [4] of 8.52.

Take `COc1ccc2c(O[C@@H]3C[C@H]4C(=O)N[C@]5(C(=O)O)C[C@H]5C=CCCCCC[C@H](NC(=O)OC5CCCC5)C(=O)N4C3)cc(-c3csc(NC(C)C)n3)nc2c1` [CILUPREVIR]: the pEC50 in series [3] was 9.00. The same compound gave a negative logarithm of the IC50 (pIC50) in series [4] of 9.00.
